Patent US9000022B2 (Exelixis Patent Company LLC, priority 2005, dated 2015)
pEC50: −log10 of the molar value.

These compounds were tested on LXRα and/or LXRβ (assay: Co-transfection assay (LXRE luciferase reporter, CV-1 cells)). Conditions: read-out: activity (IC50 or EC50 for LXR), tested as described in Example 33, isoform not specified.
Assay type: cell-based, human
Description: To measure the ability of compounds to activate or inhibit the transcriptional activity of LXR in a cell based assay, the co-transfection assay was used. It has been shown that LXR functions as a heterodimer with RXR. For the co-transfection assay, expression plasmids for LXR and RXR are introduced via transient transfection into mammalian cells along with a luciferase reporter plasmid that contains one copy of a DNA sequence that is bound by LXR-RXR heterodimers (LXRE; Willy, P. et. al. 1995). Treatment of transfected cells with an LXR agonist increases the transcriptional activity of LXR, which is measured by an increase in luciferase activity.
CV-1 African Green Monkey Kidney Cells Co-transfection expression plasmids, comprising full-length LXRα (pCMX-h LXRα, LXRβ (pCMX-hLXRβ), or RXRα (pCMX-RXR), reporter plasmid (LXREx1-Tk-Luciferase), and control (pCMX-Galactosidase expression vector) (Willey et al. Genes & Development 9 1033-1045 (1995)). Transfection reagent such as FuGENE6 (Roche). 1× Cell lysis buffer (1% Triton X 100 (J T Baker X200-07), 10% Glycerol (J T Baker M778-07), 5 mM Ditriotreitol (Quantum Bioprobe DTT03; add fresh before lysing), 1 mM EGTA (Ethylene Glycol-bis(B-Amino ethyl ether)-N,N,N′,N′-Tetracetic Acid) (Sigma E-4378), 25 mM Tricine (ICN 807420) pH 7.8) 1× Luciferase assay buffer (pH at 7.8) (0.73 mM ATP, 22.3 mM Tricine, 0.11 mM EDTA, 33.3 mM DTT) 1× Luciferrin/CoA (11 mM Luciferin, 3.05 mM Coenzyme A, 10 mM HEPES)
CV-1 cells were prepared 24 hours prior to the experiment by plating them into T-175 flasks or 500 cm^2 dishes in order to achieve 70-80% confluency on the day of the transfection. The number of cells to be transfected was determined by the number of plates to be screened. Each 384 well plate requires 1.92×10^6 cells or 5000 cells per well. DNA Transfection Reagent was prepared by mixing the required plasmid DNAs with a cationic lipid transfection reagent FuGENE6 (Roche) by following the instructions provided with the reagents. Optimal DNA amounts were determined empirically per cell line and size of vessel to be transfected. 10-12 mL of media was added to the DNA Transfection Reagent and this mixture was added to the cells after aspirating media from the T175 cm^2 flask. Cells were then incubated at least 5 hours at 37° C. to prepare screening cells.
Luciferase assay reagent was prepared by combining before use (per 10 mL): 10 mL 1× Luciferase assay buffer; 0.54 mL of 1× Luciferrin/CoA; 0.54 mL of 0.2 M Magnesium sulfate
Assay plates were prepared by dispensing 5 μL, of compound per well of a 384 well plate to achieve final compound concentration of 10 μM and no more than 1% DMSO. Media was removed from the screening cells, the cells trypsinized, harvested cells by centrifugation, counted, and plated at a density of approximately 5000 cells per well in the 384 well assay plate prepared above in a volume of about 45 μL. Assay plates containing both compounds and screening cells (50 μL in total volume) were incubated for 20 hours at 37° C.
After incubation with compounds, media was removed from the cells and lysis buffer (30 μL/well) added. After 30 minutes at ambient temperature, luciferase assay buffer (30 μL/well) was added and the assay plates read on a luminometer (PE Biosystems Northstar reader with on-board injectors, or equivalent). Plates were read immediately after addition of luciferase assay buffer.
The LXR/LNRE co-transfection assay can be used to establish the EC50/IC50 values for potency and percent activity or inhibition for efficacy. Efficacy defines the activity of a compound relative to a high control ((N-(3-((4-fluorophenyl)-(naphthalene-2-sulfonyl)amino)propyl)-2,2-dimethylpropionamide)) or a low control (DMSO/vehicle). The dose response curves are generated from an 8 point curve with concentrations differing by ½ LOG units. Each point represents the average of 4 wells of data from a 384 well plate. […]
For `CCS(=O)(=O)c1cccc(-c2ccc(-n3cc(C(C)(C)O)nc3C(C)(C)c3cccc(Cl)c3Cl)cc2)c1` [Example 22, 2-(2-(2-(2,3-dichloro-phenyl)propan-2-yl)-1-(3′-(ethylsulfonyl)biphenyl-4-yl)-1H-imidazol-4-yl)propan-2-ol], the pEC50 was > 6.00. For `Cc1cc(-c2cccc(S(C)(=O)=O)c2)ccc1-n1cc(C(C)(C)O)nc1Cc1cccc(Cl)c1Cl` [Example 23, 2-(2-(2,3-dichlorobenzyl)-1-(3-methyl-3′-(methylsulfonyl)biphenyl-4-yl)-1H-imidazol-4-yl)propan-2-ol], the pEC50 was > 6.00. `CCS(=O)(=O)c1cccc(-c2ccc(-n3cc(C(C)(C)O)nc3Cc3cccc(Cl)c3Cl)c(C)c2)c1` [Example 24, 2-(2-(2,3-dichlorobenzyl)-1-(3′-(ethylsulfonyl)-3-methylbiphenyl-4-yl)-1H-imidazol-4-yl)propan-2-ol] was tested, and the pEC50 was > 6.00. With `CC(C)(O)c1cn(-c2ccc(-c3cccc(S(C)(=O)=O)c3)cc2Cl)c(Cc2cccc(Cl)c2Cl)n1` [Example 25, 2-(1-(3-chloro-3′-(methyl-sulfonyl)biphenyl-4-yl)-2-(2,3-dichlorobenzyl)-1H-imidazol-4-yl)propan-2-ol] the pEC50 was > 6.00. `CCS(=O)(=O)c1cccc(-c2ccc(-n3cc(C(C)(C)O)nc3Cc3cccc(Cl)c3Cl)c(Cl)c2)c1` [Example 26, 2-(1-(3-chloro-3′-(ethyl-sulfonyl)biphenyl-4-yl)-2-(2,3-dichlorobenzyl)-1H-imidazol-4-yl)propan-2-ol] was tested, and the pEC50 was > 6.00. `CC(C)(O)c1cn(-c2ccc(-c3cccc(S(C)(=O)=O)c3)cc2)c(CCc2ccccc2Cl)n1` [Example 27, 2-(2-(2-chlorophenethyl)-1-(3′-(methylsulfonyl)biphenyl-4-yl)-1H-imidazol-4-yl)propan-2-ol] was tested, and the pEC50 was > 6.00. `CCS(=O)(=O)c1cccc(-c2ccc(-n3cc(C(C)(C)O)nc3CCc3ccccc3Cl)cc2)c1` [Example 28, 2-(2-(2-chlorophenethyl)-1-(3′-(ethylsulfonyl)biphenyl-4-yl)-1H-imidazol-4-yl)propan-2-ol] was tested, and the pEC50 was > 6.00.

Same assay, conditions: tested as described in Example 33; IC50 or EC50 for LXRα and/or LXRβ, isoform not specified; read-out: activity (IC50 or EC50 for LXR)
`CCS(=O)(=O)c1cc(-c2ccc(-n3cc(C(C)(C)O)nc3Cc3c(Cl)cccc3Cl)cc2)ccc1CO` [Example 8] was tested, and the IC50 or EC50 (potency, activation or inhibition) was < 1 µM. With `CCS(=O)(=O)c1cccc(-c2ccc(-n3cc(C(C)(C)O)nc3Cc3c(F)cccc3Cl)cc2)c1` [Example 10, 2-(2-(2-chloro-6-fluorobenzyl)-1-(3′-(ethylsulfonyl)biphenyl-4-yl)-1H-imidazol-4-yl)propan-2-ol] the IC50 or EC50 (potency, activation or inhibition) was < 1 µM. In the case of `CCC(O)(CC)c1cn(-c2ccc(-c3cccc(S(=O)(=O)CC)c3)cc2)c(Cc2ccccc2Cl)n1` [Example 14], the IC50 or EC50 (potency, activation or inhibition) was < 1 µM. In the case of `CC(C)(O)c1cn(-c2ccc(-c3ccc(CO)c(S(C)(=O)=O)c3)cc2)c(CCc2ccccc2Cl)n1` [Example 29], the IC50 or EC50 (potency, activation or inhibition) was < 1 µM. For `CC(C)(O)c1cn(-c2ccc(-c3cccc(S(C)(=O)=O)c3)cc2Cl)c(-c2cccc3ccccc23)n1` [Example 30, 2-(1-(3-chloro-3′-(methyl-sulfonyl)biphenyl-4-yl)-2-(naphthalen-1-yl)-1H-imidazol-4-yl)propan-2-ol], the IC50 or EC50 (potency, activation or inhibition) was < 1 µM. `CCS(=O)(=O)c1cccc(-c2ccc(-n3cc(C(C)(C)O)nc3-c3cccc4ccccc34)c(Cl)c2)c1` [Example 31, 2-(1-(3-chloro-3′-(ethyl-sulfonyl)biphenyl-4-yl)-2-(naphthalen-1-yl)-1H-imidazol-4-yl)propan-2-ol] was tested, and the IC50 or EC50 (potency, activation or inhibition) was < 1 µM. With `CC(C)(O)c1cn(-c2ccc(-c3ccc(CO)c(S(C)(=O)=O)c3)cc2Cl)c(-c2cccc3ccccc23)n1` [Example 32, 2-(1-(3-chloro-4′-(hydroxy-methyl)-3-(methylsulfonyl)biphenyl-4-yl)-2-(naphthalen-1-yl)-1H-imidazol-4-yl)propan-2-ol] the IC50 or EC50 (potency, activation or inhibition) was < 1 µM. For `CC(C)(O)c1cn(-c2ccc(-c3cccc(S(C)(=O)=O)c3)cc2Cl)c(-c2nccc3ccccc23)n1` [Example 33, 2-(1-(3-chloro-3′-(methyl-sulfonyl)biphenyl-4-yl)-2-(isoquinolin-1-yl)-1H-imidazol-4-yl)propan-2-ol], the IC50 or EC50 (potency, activation or inhibition) was < 1 µM. For `CCS(=O)(=O)c1cccc(-c2ccc(-n3cc(C(C)(C)O)nc3-c3nccc4ccccc34)c(Cl)c2)c1` [Example 34, 2-(1-(3-chloro-3′-(ethyl-sulfonyl)biphenyl-4-yl)-2-(isoquinolin-1-yl)-1H-imidazol-4-yl)propan-2-ol], the IC50 or EC50 (potency, activation or inhibition) was < 1 µM. `Cc1cc(-c2cccc(S(C)(=O)=O)c2)ccc1-n1cc(C(C)(C)O)nc1-c1cccc2cnccc12` [Example 35, 2-(2-(isoquinolin-5-yl)-1-(3-methyl-3′-(methylsulfonyl)biphenyl-4-yl)-1H-imidazol-4-yl)propan-2-ol] was tested, and the IC50 or EC50 (potency, activation or inhibition) was 1 to 10 µM. Work on `CCS(=O)(=O)c1cccc(-c2ccc(-n3cc(C(C)(C)O)nc3-c3cccc4cnccc34)c(C)c2)c1` [Example 36, 2-(1-(3′-(ethylsulfonyl)-3-methylbiphenyl-4-yl)-2-(isoquinolin-5-yl)-1H-imidazol-4-yl)propan-2-ol] yielded an IC50 or EC50 (potency, activation or inhibition) of 1 to 10 µM. With `CC(C)(O)c1cn(-c2ccc(-c3cccc(S(C)(=O)=O)c3)cc2)c(-c2cnccc2C(F)(F)F)n1` [Example 37, 2-(1-(3′-(methylsulfonyl)biphenyl-4-yl)-2-(4-(trifluoromethyl)pyridin-3-yl)-1H-imidazol-4-yl)propan-2-ol] the IC50 or EC50 (potency, activation or inhibition) was > 10 µM. In the case of `CCS(=O)(=O)c1cccc(-c2ccc(-n3cc(C(C)(C)O)nc3-c3cnccc3C(F)(F)F)cc2)c1` [Example 38, 2-(1-(3′-(ethylsulfonyl)biphenyl-4-yl)-2-(4-(trifluoromethyl)pyridin-3-yl)-1H-imidazol-4-yl)propan-2-ol], the IC50 or EC50 (potency, activation or inhibition) was > 10 µM. With `Cc1cc(-c2cccc(S(C)(=O)=O)c2)ccc1-n1cc(C(C)(C)O)nc1-c1cccs1` [Example 41] the IC50 or EC50 (potency, activation or inhibition) was 1 to 10 µM. In the case of `Cc1cc(-c2cccc(S(C)(=O)=O)c2)ccc1-n1cc(C(C)(C)O)nc1-c1ccc(C)n1C` [Example 42, 2-(2-(1,5-dimethyl-1H-pyrrol-2-yl)-1-(3-methyl-3′-(methylsulfonyl)biphenyl-4-yl)-1H-imidazol-4-yl)propan-2-ol], the IC50 or EC50 (potency, activation or inhibition) was < 1 µM. With `CC(C)(O)c1cn(-c2c(Cl)cccc2Cl)c(-c2ccc(-c3cccc(S(C)(=O)=O)c3)s2)n1` [Example 44, 2-(1-(2,6-dichlorophenyl)-2-(5-(3-(methylsulfonyl)phenyl)thiophen-2-yl)-1H-imidazol-4-yl)propan-2-ol] the IC50 or EC50 (potency, activation or inhibition) was 1 to 10 µM. `CCS(=O)(=O)c1cccc(-c2ccc(-c3nc(C(C)(C)O)cn3-c3c(Cl)cccc3Cl)s2)c1` [Example 45, 2-(1-(2,6-dichlorophenyl)-2-(5-(3-(ethylsulfonyl)phenyl)thiophen-2-yl)-1H-imidazol-4-yl)propan-2-ol] was tested, and the IC50 or EC50 (potency, activation or inhibition) was 1 to 10 µM. `CCS(=O)(=O)c1cccc(-c2ccc(-c3nc(C(C)(C)O)cn3-c3c(Cl)cccc3Cl)c(C)c2)c1` [Example 58, 2-(1-(2,6-dichlorophenyl)-2-(3′-(ethylsulfonyl)-3-methylbiphenyl-4-yl)-1H-imidazol-4-yl)propan-2-ol] was tested, and the IC50 or EC50 (potency, activation or inhibition) was < 1 µM.
